Experiments:
[1] = tested on: vascular smooth muscle, AII response (rabbit aortic rings); assay: Assay B: In Vitro Vascular Smooth Muscle Response for AII (rabbit aortic rings); format: cell-based, rabbit (male New Zealand white); conditions: Oryctolagus cuniculus, 5 min, antagonist 10^-5 M, three rabbits, read-out: Assay B PA2 (converted)
Description: Compound of Example #5 was tested for AII antagonist activity in rabbit aortic rings. Male New Zealand white rabbits (2-2.5 kg) were sacrificed using an overdose of pentobarbital and exsanguinated via the carotid arteries. The thoracic aorta was removed, cleaned of adherent fat and connective tissue and then cut into 3-mm ring segments. The endothelium was removed from the rings by gently sliding a rolled-up piece of filter paper into the vessel lumen. The rings were then mounted in a water-jacketed tissue bath, maintained at 37° C., between moveable and fixed ends of a stainless steel wire with the moveable end attached to an FT03 Grass transducer coupled to a Model 7D Grass Polygraph for recording isometric force responses. The bath was filled with 20 ml of oxygenated (95% oxygen/5% carbon dioxide) Krebs solution of the following composition […]: 130 NaCl, 15 NaHCO3, 15 KCl, 1.2 NaH2 PO4, 1.2 MgSO4, 2.5 CaCl2, and 11.4 glucose. The preparations were equilibrated for one hour before approximately one gram of passive tension was placed on the rings. Angiotensin II concentration-response curves were then recorded (3×10^-10 to 1×10^-5 M). […] The effectiveness of the test compound was expressed in terms of pA2 values and were calculated according to H. O. Schild [Br. J. Pharmacol. Chemother., 189-206 (1947)]. […] The test compound was evaluated in aorta rings from three rabbits.

[2] = tested on: response to angiotensin II (urinary sodium excretion); assay: Assay E: Urinary Sodium Excretion, acute administration with AII infusion; format: in vivo, male Sprague-Dawley rats, conscious; conditions: for Urinary Sodium Excretion: means±SE
Description: antagonist compound (Ex. #5) and a glutamyl conjugate (Ex. #81) of the Ex. #5 AII antagonist compound to determine the renal selectivity of the conjugate. Male Sprague-Dawley rats (300-350 g body weight) had catheters implanted into the femoral artery and vein under chloral hydrate anesthesia (400 mg/kg, i.p.). After 2 to 4 days of recovery, on the experimental day, a urinary bladder catheter was implanted under methohexital anesthesia (50 mg/kg, i.p.). Rats were placed in a restraint device to allow for urine collection and mean arterial pressure measurements. After 1-2 hours of recovery, in conscious rats, an isotonic saline infusion (50 μl/min) was started and continued for the duration of the experiment. After one hour equilibration to the saline infusion, a 20 minute control urine and mean arterial pressure collection were obtained. Then angiotensin II was infused at 20 ng/min for 25 minutes. After 5 minutes of angiotensin II infusion, a 20 minute experimental collection was made. Finally, 5 minutes after the end of angiotensin II infusion, a 20 minute recovery collection was obtained. In separate groups of rats, vehicle (0.3 ml isotonic saline, i.v. bolus), Example #5 angiotensin II antagonist compound (100 mg/kg, i.v. bolus), or Example #81 conjugate (100 mg/kg, i.v. bolus) was administered 1-2 minutes prior to onset of angiotensin II infusion. […] Results are shown in Tables XIII and XIV and also in FIGS. 3 and 4. Data are presented as means±SE. Repeated measures analysis of variance was used for main effects and interactions and Tukey's HSD test was used for pairwise comparisons among means. Statistical significance was defined as p<0.05.

AII receptor = assay: Assay C: In Vivo Intraduodenal Pressor Assay Response for AII Antagonists; set-up: species or system male Sprague-Dawley rats
Description: The in vivo AII receptor antagonist activity of Example #5 compound was examined in ganglion-blocked male Sprague-Dawley rats (Harlan Sprague-Dawley, Inc.), weighing 300-400 g, anesthetized with 100 mg/kg i.p. Inactin. Catheters (PE-50) were implanted in a femoral artery and vein to measure mean arterial pressure and to administer compounds, respectively. A tracheal catheter maintained airway patency. For intravenous experiments, autonomic neurotransmission was blocked by treatment with mecamylamine (3 mg/kg i.v.) and atropine (400 μg/kg i.v.). AII (30 ng/kg i.v., 20-25 μl volume) was administered four times at 10 minute intervals to establish a reproducible control pressor response. Example #5 compound was then administered at 1, 3 and 10 mg/kg in separate groups of rats as an intravenous bolus (0.2 ml volume) before rechallenging with AII (30 ng/kg, 20-25 μl volume) for the following 2 hours. For intraduodenal experiments, rats were anesthetized as above, but ganglion blockade was not performed. AII was administered at 100 ng/kg i.v. (20-25 μl volume), and was administered at 10, 30 and 100 mg/kg in separate groups of rats as an intraduodenal bolus (0.2 ml volume). […] The response to AII was calculated as percent of the control response and then the percent inhibition was calculated as 100 minus the percent control response. Duration of action of a test compound was defined as the time from peak percent inhibition to 50% of peak. The test compound was tested in two rats and the values for the two rats were averaged.

SMILES: CCCCc1nc(Cl)c(CO)n1Cc1ccc(-c2ccccc2C(=O)O)cc1 [Example 5]
- Kb [1]: 74.1 nM
- Urinary Sodium Excretion ([2]; 100 mg/kg i.v. bolus, Recovery after AII infusion): 2.6 ± 0.7 μEq/min/100 g BW
- Urinary Sodium Excretion ([2]; 100 mg/kg i.v. bolus, during AII infusion 20 ng/min, * in table): 2.5 ± 1.1 μEq/min/100 g BW
- antinatriuretic (urinary sodium excretion) response to angiotensin II ([2]; 100 mg/kg, i.v. bolus, AII 20 ng/min): prevented both responses to angiotensin II
- Urinary Sodium Excretion ([2]; Control period (before dosing)): 2.4 ± 0.5 μEq/min/100 g BW
- % Control of AII Pressor Response (AII receptor; 10 mg/kg intraduodenal, 1 min): 100%
- % Control of AII Pressor Response (AII receptor; 10 mg/kg intraduodenal, 5 min): 94%
- % Control of AII Pressor Response (AII receptor; 10 mg/kg intraduodenal, 10 min): 99%
- % Control of AII Pressor Response (AII receptor; 10 mg/kg intraduodenal, 20 min): 85%
- % Control of AII Pressor Response (AII receptor; 10 mg/kg intraduodenal, 30 min): 91%
- % Control of AII Pressor Response (AII receptor; 10 mg/kg intraduodenal, 40 min): 91%
- % Control of AII Pressor Response (AII receptor; 10 mg/kg intraduodenal, 50 min): 95%
- % Control of AII Pressor Response (AII receptor; 10 mg/kg intraduodenal, 60 min): 93%
- % Control of AII Pressor Response (AII receptor; 10 mg/kg intraduodenal, 75 min): 95%
- % Control of AII Pressor Response (AII receptor; 30 mg/kg intraduodenal, 1 min): 48%
- % Control of AII Pressor Response (AII receptor; 30 mg/kg intraduodenal, 5 min): 48%
- % Control of AII Pressor Response (AII receptor; 30 mg/kg intraduodenal, 10 min): 44%
- % Control of AII Pressor Response (AII receptor; 30 mg/kg intraduodenal, 20 min): 28%
- % Control of AII Pressor Response (AII receptor; 30 mg/kg intraduodenal, 30 min): 34%
- % Control of AII Pressor Response (AII receptor; 30 mg/kg intraduodenal, 40 min): 42%
- % Control of AII Pressor Response (AII receptor; 30 mg/kg intraduodenal, 50 min): 41%
- % Control of AII Pressor Response (AII receptor; 30 mg/kg intraduodenal, 60 min): 53%
- % Control of AII Pressor Response (AII receptor; 30 mg/kg intraduodenal, 75 min): 74%
- % Control of AII Pressor Response (AII receptor; 100 mg/kg intraduodenal, 1 min): 28%
- % Control of AII Pressor Response (AII receptor; 100 mg/kg intraduodenal, 5 min): 19%
- % Control of AII Pressor Response (AII receptor; 100 mg/kg intraduodenal, 10 min): 15%
- % Control of AII Pressor Response (AII receptor; 100 mg/kg intraduodenal, 20 min): 14%
- % Control of AII Pressor Response (AII receptor; 100 mg/kg intraduodenal, 30 min): 9%
- % Control of AII Pressor Response (AII receptor; 100 mg/kg intraduodenal, 40 min): 5%
- % Control of AII Pressor Response (AII receptor; 100 mg/kg intraduodenal, 50 min): 13%
- % Control of AII Pressor Response (AII receptor; 100 mg/kg intraduodenal, 60 min): 10%
- % Control of AII Pressor Response (AII receptor; 100 mg/kg intraduodenal, 75 min): 13%

Reference: US5302610A, “Renal-selective biphenylmethyl imidazole angiotensin II antagonists for treatment of hypertension” (G. D. Searle & Co., priority 1991, dated 1994)
